We go through 22 compounds from patent US7723523B2, “Tetrahydropyridothiophenes” (4SC AG, priority 2004, dated 2010).

What is called IC50 is the concentration that gives 50% inhibition.

Test [1] relates to RKO (RKOp27) human colon adenocarcinoma cells. Put plainly: Alamar Blue cell viability assay, anti-proliferative/cytotoxic activity on proliferating RKOp27 cells. Type of test: cell-based. The following applies: absence of Ponasterone A, 72 hours incubation, read-out: IC50 RKO p27 proliferating. On the procedure: The anti-proliferative/cytotoxic activity of the compounds described herein, can be tested on subclones of RKO (RKOp27) human colon adenocarcinoma cells (Schmidt et al., Oncogene 19, 2423-2429; 2000) using the Alamar Blue cell viability assay (described in O'Brien et al. Eur J Biochem 267, 5421-5426, 2000). The compounds are dissolved as 20 mM solutions in dimethylsulfoxide (DMSO) and subsequently diluted in semi-logarithmic steps. DMSO dilutions are further diluted 1:100 into Dulbecco's modified Eagle's medium (DMEM) containing 10% fetal calf serum to a final concentration twice as much as the final concentration in the test. RKO subclones are seeded into 96 well flat bottom plates at a density of 4000 cells per well in a volume of 50 μl per well. 24 hours after seeding 50 μl each of the compound dilutions in DMEM are added into each well of the 96 well plate. Each compound dilution is tested as quadruplicates. Wells containing untreated control cells are filled with 50 μl DMEM containing 1% DMSO. The cells are then incubated with the substances for 72 hours at 37° C. in a humidified atmosphere containing 5% carbon dioxide. To determine the viability of the cells, 10 μl of an Alamar Blue solution (Biosource) are added and the fluorescence is measured at an extinction of 544 nm and an emission of 590 nm. For the calculation of the cell viability the emission value from untreated cells is set as 100% viability and the emission rates of treated cells are set in relation to the values of untreated cells. Viabilities are expressed as % values.
The corresponding IC50 values of the compounds for anti-proliferative/cytotoxic activity are determined from the concentration-effect curves.
Representative IC50 values for anti-proliferation/cytotoxicity determined in the aforementioned assay are described in the table A (1st column), in which the numbers of the compound correspond to the numbers of the examples.
(In general: Resazurin is reduced to fluorescent resorufin, in cell work by metabolically active cells.)

Test [2] relates to RKO colon adenocarcinoma cells (RKOp27) arrested by expression of ectopic p27Kip1. The test is described as follows: Alamar Blue cell viability assay on RKOp27 cells arrested by Ponasterone A-induced p27Kip1 (cell cycle specific mode of action). It counts as cell-based. As to conditions: Homo sapiens, RKOp27, 72 h, cells arrested by p27Kip1 induced with 10 μM Ponasterone A, 72 hours incubation, read-out: IC50 RKO p27 arrested. As for the experimental part:
To determine the cell cycle specific mode of action, subclones of RKO colon adenocarcinoma cells (RKOp27 or RKOp21 as described by Schmidt et al. in Oncogene 19, 2423-2429; 2000) are seeded into 96 well flat bottom plates at a density of 16000 cells per well in a volume of 50 μl per well in DMEM growth medium with 10% FCS containing 10 μM Ponasterone A. 24 hours after seeding 50 μl each of the compound dilutions in DMEM are added into each well of the 96 well plate. Each compound dilution is tested as quadruplicates. Wells containing untreated control cells are filled with 50 μl DMEM containing 1% DMSO. The cells are then incubated with the substances for 72 hours at 37° C. in a humidified atmosphere containing 5% carbon dioxide. To determine the viability of the cells, 10 μl of an Alamar Blue solution (Biosource) are added and the fluorescence is measured at an extinction of 544 nm and an emission of 590 nm. For the calculation of the cell viability the emission value from untreated cells is set as 100% viability and the emission rates of treated cells are set in relation to the values of untreated cells. Viabilities are expressed as % values. Viability is compared of proliferating cells grown in the absence of the inducer Ponasterone A, versus viability of cells arrested by the expression of ectopic p27Kip1 induced by Ponasterone A. The data of this experimental setting are summarized in table A (2nd column).

SMILES strings stand for the structures.

Consider `N#Cc1c(NC(=O)/C=C/c2ccccc2)sc2c1CCN(C(=O)CCCO)C2` [Example 192, (E)-N-[3-Cyano-6-(4-hydroxy-butanoyl)-4,5,6,7-tetrahydro-thieno[2,3-c]pyridin-2-yl]-3-phenyl-acrylamide], for which the IC50 in test [1] is ≤ 2 µM; in test [2], ≥ 100 µM.
For `CCCC(=O)N1CCc2c(sc(NC(=O)/C=C/c3cccnc3)c2C#N)C1` [Example 39, (E)-N-(6-Butyryl-3-cyano-4,5,6,7-tetrahydro-thieno[2,3-c]pyridin-2-yl)-3-pyridin-3-yl-acrylamide] the same measures were ≤ 2 µM and > 100 µM.
For `N#Cc1c(NC(=O)/C=C/c2ccccc2Cl)sc2c1CCN(C(=O)CCc1cccnc1)C2` [Example 215, (E)-3-(2-Chloro-phenyl)-N-[3-cyano-6-(3-pyridin-3-yl-propanoyl)-4,5,6,7-tetrahydro-thieno[2,3-c]pyridin-2-yl]-acrylamide] the same measures were ≤ 2 µM and ≥ 100 µM.
In the same order, the values of `CCOc1ccccc1/C=C/C(=O)Nc1sc2c(c1C#N)CCN(C(=O)COC)C2` [Example 223, (E)-N-[3-Cyano-6-(2-methoxy-ethanoyl)-4,5,6,7-tetrahydro-thieno[2,3-c]pyridin-2-yl]-3-(2-ethoxy-phenyl)-acrylamide] are ≤ 2 µM and ≥ 100 µM.
In the case of `CCOC(=O)N1CCc2c(sc(NC(=O)/C=C/c3c(F)ccc(F)c3Cl)c2C#N)C1` [Example 57, 2-[(E)-3-(2-Chloro-3,6-difluoro-phenyl)-allanoylamino]-3-cyano-4,7-dihydro-5H-thieno[2,3-c]pyridine-6-carboxylic acid ethyl ester], the concentration for half-maximal inhibition (IC50) in test [1] was ≤ 2 µM; in test [2], ≥ 100 µM.
For `CCOC(=O)N1CCc2c(sc(NC(=O)/C=C/c3ccccc3OCC)c2C#N)C1` [Example 62, 3-Cyano-2-[(E)-3-(2-ethoxy-phenyl)-allanoylamino]-4,7-dihydro-5H-thieno[2,3-c]pyridine-6-carboxylic acid ethyl ester] the same measures were ≤ 2 µM and ≥ 100 µM.
In the same order, the values of `COCCOCC(=O)N1CCc2c(sc(NC(=O)/C=C/c3ccccc3OC)c2C#N)C1` [Example 209, (E)-N-{3-Cyano-6-[2-(2-methoxy-ethoxy)-ethanoyl]-4,5,6,7-tetrahydro-thieno[2,3-c]pyridin-2-yl}-3-(2-methoxy-phenyl)-acrylamide] are ≤ 2 µM and ≥ 100 µM.
Turning to `N#Cc1c(NC(=O)/C=C/c2ccccc2)sc2c1CCN(C(=O)OCCN1CCOCC1)C2` [Example 112, 3-Cyano-2-((E)-3-phenyl-allanoylamino)-4,7-dihydro-5H-thieno[2,3-c]pyridine-6-carboxylic acid 2-morpholin-4-yl-ethyl ester], the figures for the half-maximal inhibitory concentration (IC50) in test [1] and in test [2] were ≤ 2 µM and ≥ 100 µM, respectively.
For `CCOC(=O)N1CCc2c(sc(NC(=O)/C=C/c3ccco3)c2C#N)C1` [Example 10, 3-Cyano-2-((E)-3-furan-2-yl-allanoylamino)-4,7-dihydro-5H-thieno[2,3-c]pyridine-6-carboxylic acid ethyl ester] the same measures were ≤ 2 µM and > 100 µM.
On to `COc1cccc(CCOC(=O)N2CCc3c(sc(NC(=O)/C=C/c4cccnc4)c3C#N)C2)c1` [Example 152, 3-Cyano-2-((E)-3-pyridin-3-yl-allanoylamino)-4,7-dihydro-5H-thieno[2,3-c]pyridine-6-carboxylic acid 2-(3-methoxy-phenyl)-ethyl ester], for which the IC50 was ≤ 2 µM in test [1] and ≥ 100 µM in test [2].
For `CCOc1ccccc1/C=C/C(=O)Nc1sc2c(c1C#N)CCN(C(=O)OCc1cccnc1)C2` [Example 237, 3-Cyano-2-[(E)-3-(2-ethoxy-phenyl)-allanoylamino]-4,7-dihydro-5H-thieno[2,3-c]pyridine-6-carboxylic acid pyridin-3-ylmethyl ester] the same measures were ≤ 2 µM and ≥ 100 µM.
With `N#Cc1c(NC(=O)/C=C/c2ccco2)sc2c1CCN(C(=O)Cc1cccnc1)C2` [Example 228, (E)-N-[3-Cyano-6-(2-pyridin-3-yl-ethanoyl)-4,5,6,7-tetrahydro-thieno[2,3-c]pyridin-2-yl]-3-furan-2-yl-acrylamide], the IC50 in test [1] was ≤ 2 µM; in test [2], ≥ 100 µM.
For the compound `COCCOC(=O)N1CCc2c(sc(NC(=O)/C=C/c3ccco3)c2C#N)C1` [Example 240, 3-Cyano-2-((E)-3-furan-2-yl-allanoylamino)-4,7-dihydro-5H-thieno[2,3-c]pyridine-6-carboxylic acid 2-methoxy-ethyl ester], the IC50 is ≤ 2 µM in test [1] and ≥ 100 µM in test [2].
In the same order, the values of `CC(C)(C)OC(=O)N1CCc2c(sc(NC(=O)/C=C/c3ccoc3)c2C#N)C1` [Example 55, 3-Cyano-2-((E)-3-furan-3-yl-allanoylamino)-4,7-dihydro-5H-thieno[2,3-c]pyridine-6-carboxylic acid tert-butyl ester] are ≤ 2 µM and ≥ 100 µM.
In the same order, the values of `COc1cccc(COC(=O)N2CCc3c(sc(NC(=O)/C=C/c4cccnc4)c3C#N)C2)c1` [Example 147, 3-Cyano-2-((E)-3-pyridin-3-yl-allanoylamino)-4,7-dihydro-5H-thieno[2,3-c]pyridine-6-carboxylic acid 3-methoxy-benzyl ester] are ≤ 2 µM and ≥ 100 µM.
For `COCC(=O)N1CCc2c(sc(NC(=O)/C=C/c3cccnc3)c2C#N)C1` [Example 194, (E)-N-[3-Cyano-6-(2-methoxy-ethanoyl)-4,5,6,7-tetrahydro-thieno[2,3-c]pyridin-2-yl]-3-pyridin-3-yl-acrylamide] the same measures were ≤ 2 µM and ≥ 100 µM.
Consider `COc1ccc(OC(=O)N2CCc3c(sc(NC(=O)/C=C/c4cccnc4)c3C#N)C2)cc1` [Example 143, 3-Cyano-2-((E)-3-pyridin-3-yl-allanoylamino)-4,7-dihydro-5H-thieno[2,3-c]pyridine-6-carboxylic acid 4-methoxy-phenyl ester], for which the IC50 in test [1] is ≤ 2 µM; in test [2] it was ≥ 100 µM.
In the same order, the values of `CCNC(=O)N1CCc2c(sc(NC(=O)/C=C/c3cccnc3)c2C#N)C1` [Example 38, 3-Cyano-2-((E)-3-pyridin-3-yl-allanoylamino)-4,7-dihydro-5H-thieno[2,3-c]pyridine-6-carboxylic acid ethylamide] are ≤ 2 µM and > 100 µM.
Consider `CCOC(=O)N1CCc2c(sc(NC(=O)/C=C/c3csc4ccccc34)c2C#N)C1` [Example 71, 2-((E)-3-Benzo[b]thiophen-3-yl-allanoylamino)-3-cyano-[4,7-d]hydro-5H-thieno[2,3-c]pyridine-6-carboxylic acid ethyl ester], for which the IC50 was ≤ 2 µM in test [1] and ≥ 100 µM in test [2].
In the same order, the values of `CCOC(=O)N1CCc2c(sc(NC(=O)/C=C/c3cc4ccccc4o3)c2C#N)C1` [Example 84, 2-[(E)-3-Benzofuran-2-yl-allanoylamino]-3-cyano-4,7-dihydro-5H-thieno[2,3-c]pyridine-6-carboxylic acid ethyl ester] are ≤ 0.5 µM and ≥ 50 µM.
For the compound `CCOc1ccccc1/C=C/C(=O)Nc1sc2c(c1C#N)CCN(C(=O)OCCc1ccccn1)C2` [Example 239, 3-Cyano-2-[(E)-3-(2-ethoxy-phenyl)-allanoylamino]-4,7-dihydro-5H-thieno[2,3-c]pyridine-6-carboxylic acid 2-pyridin-2-yl-ethyl ester], the half-maximal inhibitory concentration (IC50) was ≤ 2 µM in test [1] and ≥ 100 µM in test [2].
In the same order, the values of `N#Cc1c(NC(=O)/C=C/c2ccccc2)sc2c1CCN(C(=O)OCCO)C2` [Example 135, 3-Cyano-2-((E)-3-phenyl-allanoylamino)-4,7-dihydro-5H-thieno[2,3-c]pyridine-6-carboxylic acid 2-hydroxy-ethyl ester] are ≤ 2 µM and ≥ 100 µM.
